Assay results taken from paper PMC11869560, “Anticancer and cancer preventive activities of shogaol and curcumin from Zingiberaceae family plants in KG-1a leukemic stem cells” (BMC Complementary Medicine and Therapies, 2025).
Converted amounts (≈) assume the structure as drawn.

What was measured:
RAW264.7 cells = test: Cytotoxicity (IC20, cell viability) in RAW264.7 cells; type: cell-based; conditions: Mus musculus, RAW264.7; incubation for 48 h; read-out: IC20 RAW264.7 (inhibitory concentration at 20% growth)
Description: MTT (3-(4,5-dimethylthiazol-2-yl)-2,5-diphenyltetrazolium bromide) assay was used to investigate the cytotoxicity of the test samples. […] After that, 5 mg/mL of MTT dye solution (Sigma-Aldrich, MA, USA) was added and incubated for 4 h. The produced formazan crystals were dissolved in 200 μL of DMSO (Sigma-Aldrich, MA, USA); then, the optical density (OD) was measured using an ELISA plate reader ([…], Taiwan) at 578 nm with a reference wavelength of 630 nm. The percentage of surviving cells was calculated from the absorbance values of the test and control wells using the following Equation. 1 [drawing 1] […] Afterward, supernatants were collected, and the levels of TNF-α and NO were measured using the Mouse TNF alpha Uncoated ELISA Kit (InvitrogenTM, ThermoFisher Scientific, MA, USA) and the Total Nitric Oxide Assay Kit (InvitrogenTM, ThermoFisher Scientific, MA, USA), respectively, according to the manufacturer's instructions.

[1] = system: TNF-α production in LPS-activated RAW264.7 cells; test: TNF-α production in LPS-activated RAW264.7 cells (ELISA); type: cell-based, mouse; conditions: IC20 concentration, 2 h pre-treatment then 1 µg/mL LPS 24 h
Description: (§1) For the measurement of tumor necrosis factor-alpha (TNF-α) and NO, RAW264.7 cells were pre-treated with plant extracts and active compounds at a non-cytotoxic dose (IC20) (Table S9) or 1 µg/mL of dexamethasone (positive control) in a 24-well plate for 2 h. Subsequently, 1 µg/mL of lipopolysaccharide (LPS) (Cat No. 00497693, Invitrogen™, MA, USA) was added to each well, and the cells were incubated for an additional 24 h to allow sufficient time for the compounds to exert measurable anti-inflammatory effects while maintaining cell viability. Afterward, supernatants were collected, and the levels of TNF-α and NO were measured using the Mouse TNF alpha Uncoated ELISA Kit (Invitrogen™, ThermoFisher Scientific, MA, USA) and the Total Nitric Oxide Assay Kit (Invitrogen™, ThermoFisher Scientific, MA, USA), respectively, according to the manufacturer’s instructions.
(§2) The percentage of NO or cytokine inhibitions were calculated using the following equation: […]
(§3) where A is the level of cytokine or NO without treatment, and B is the level of cytokine or NO with treatment.

[2] = system: IL-2 production in PHA-activated PBMCs; test: IL-2 production in PHA-activated PBMCs (ELISA); type: cell-based, human; conditions: IC20 concentration, 2 h pre-treatment then 20 µL/mL PHA 24 h
Description: For the measurement of interleukin-2 (IL-2), human PBMCs were pre-treated with plant extracts and active compounds at the IC20 concentration (Table S9) or 1 µg/mL of dexamethasone (positive control) in a 24-well plate for 2 h. Subsequently, 20 µL/mL of phytohemagglutinin (PHA) (Cat. No. 10576015, Thermo Fisher Scientific, MA, USA) was added to each well, and the cells were incubated for an additional 24 h. After that, supernatants were collected, and the levels of IL-2 were measured by the Human IL-2 Uncoated ELISA Kit (Invitrogen™, ThermoFisher Scientific, MA, USA), according to the manufacturer’s instructions.
as §2, §3

[3] = system: NO production in LPS-activated RAW264.7 cells; test: NO production in LPS-activated RAW264.7 cells; type: cell-based, mouse; conditions: IC20 concentration, 2 h pre-treatment then 1 µg/mL LPS 24 h
Description: as §1, §2, §3

## COc1cc(/C=C/C(=O)CC(=O)/C=C/c2ccc(O)c(OC)c2)ccc1O [Curcumin, curcumin]
RAW264.7 cells
  IC20: 2.08 ± 0.15 µg/mL (≈ 5.65 µM)

## CCCCC/C=C/C(=O)CCc1ccc(O)c(OC)c1 [Shogaol, shogaol]
[1]
  inhibition of TNF-α release: 24.41 ± 0.99%
[2]
  inhibition of IL-2 release: 80.04 ± 4.82%
RAW264.7 cells
  IC20: 2.71 ± 0.62 µg/mL (≈ 9.81 µM)
[3]
  inhibition of NO release: 46.46 ± 3.71%
